Source: patent US20180148418A1, “AMIDO-SUBSTITUTED CYCLOHEXANE DERIVATIVES” (Bayer Pharma Aktiengesellschaft, priority 2015, published 2018)

Key:
[1] = test system: HEK293 cells cotransfected with the FOP control vector; test: HEK293 FOP assay (control reporter with non-functional TCF elements); assay type: cell-based; settings: Homo sapiens, 16 hours
In short: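 Compound series from 50 μM down to 15 nM, prediluted in DMSO then 50-fold into CAFTY buffer (pH 7.4, 2 mM Ca2+, 0.01% BSA), tested alongside TOP cells on a Geneticin-selected HEK293 FOP line whose TCF elements are replaced by a random sequence; recombinant human Wnt-3a applied at 2500-5 ng/ml.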

TNKS1 = target: T1, TNKS1 (Homo sapiens, UniProt O95271); test: TNKS1 Assay B (auto-parsylation, [3H]-NAD+ SPA); assay type: biochemical; settings: 6 nM TNKS1, auto-parsylation, over night at room temperature
T1 construct: purchased BPS Bioscience, San Diego, USA 80579 (TNKS1 Histone Ribosylation Assay Kit)
T1 sequence (O95271 1-1327): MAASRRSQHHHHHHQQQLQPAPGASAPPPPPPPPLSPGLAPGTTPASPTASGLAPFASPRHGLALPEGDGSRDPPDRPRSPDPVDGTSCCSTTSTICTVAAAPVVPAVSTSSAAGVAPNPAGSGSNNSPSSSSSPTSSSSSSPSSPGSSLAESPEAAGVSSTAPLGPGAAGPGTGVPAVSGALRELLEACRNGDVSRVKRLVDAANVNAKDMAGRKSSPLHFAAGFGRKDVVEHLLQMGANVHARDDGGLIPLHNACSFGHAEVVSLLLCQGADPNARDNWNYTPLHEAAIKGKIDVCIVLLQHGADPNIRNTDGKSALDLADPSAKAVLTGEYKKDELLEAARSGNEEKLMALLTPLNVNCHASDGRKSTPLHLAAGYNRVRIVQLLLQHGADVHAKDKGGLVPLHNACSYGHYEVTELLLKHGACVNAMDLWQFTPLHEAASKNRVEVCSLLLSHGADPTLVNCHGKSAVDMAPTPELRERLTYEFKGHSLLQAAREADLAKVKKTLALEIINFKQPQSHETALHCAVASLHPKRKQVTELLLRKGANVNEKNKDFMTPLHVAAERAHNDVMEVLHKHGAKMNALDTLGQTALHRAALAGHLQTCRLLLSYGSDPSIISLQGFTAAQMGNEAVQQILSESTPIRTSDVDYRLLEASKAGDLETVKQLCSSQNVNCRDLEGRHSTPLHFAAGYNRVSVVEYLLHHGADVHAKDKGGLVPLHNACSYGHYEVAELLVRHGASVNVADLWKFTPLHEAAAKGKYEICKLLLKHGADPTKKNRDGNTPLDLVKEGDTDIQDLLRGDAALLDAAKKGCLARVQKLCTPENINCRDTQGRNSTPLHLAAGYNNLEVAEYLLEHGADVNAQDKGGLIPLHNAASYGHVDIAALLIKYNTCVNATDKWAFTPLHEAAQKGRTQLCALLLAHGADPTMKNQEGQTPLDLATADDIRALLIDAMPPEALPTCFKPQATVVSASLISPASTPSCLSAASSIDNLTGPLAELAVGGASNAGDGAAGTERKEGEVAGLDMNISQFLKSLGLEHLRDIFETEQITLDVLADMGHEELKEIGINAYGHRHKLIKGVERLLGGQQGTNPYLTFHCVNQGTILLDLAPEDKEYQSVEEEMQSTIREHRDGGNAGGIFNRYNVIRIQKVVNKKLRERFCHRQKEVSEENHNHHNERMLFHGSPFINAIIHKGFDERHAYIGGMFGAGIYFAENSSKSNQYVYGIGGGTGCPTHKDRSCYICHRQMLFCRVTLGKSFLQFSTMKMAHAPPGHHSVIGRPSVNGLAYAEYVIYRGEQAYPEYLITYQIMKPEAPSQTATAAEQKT

Structure (SMILES)	IC50 [1]	IC50 (TNKS1)
COCC(C)NC(=O)c1nc[nH]c1C(=O)N[C@H]1CC[C@H](C(=O)Nc2cc(C(F)(F)F)ccc2Cl)CC1 (stereo partly drawn) [Example 143, N^5-(trans-4-{[2-chloro-5-(trifluoromethyl)phenyl]carbamoyl}cyclohexyl)-N^4-(1-methoxypropan-2-yl)-1H-imidazole-4,5-dicarboxamide]	33000 nM	210 nM
COC(C)(C)CNC(=O)c1nc[nH]c1C(=O)N[C@H]1CC[C@H](C(=O)Nc2cc(C(F)(F)F)ccc2Cl)CC1 [Example 144, N^5-(trans-4-{[2-chloro-5-(trifluoromethyl)phenyl]carbamoyl}cyclohexyl)-N^4-(2-methoxy-2-methylpropyl)-1H-imidazole-4,5-dicarboxamide]	25000 nM	190 nM
CC(C)(O)CNC(=O)c1nc[nH]c1C(=O)N[C@H]1CC[C@H](C(=O)Nc2cc(C(F)(F)F)ccc2Cl)CC1 [Example 145, N^5-(trans-4-{[2-chloro-5-(trifluoromethyl)phenyl]carbamoyl}cyclohexyl)-N^4-(2-hydroxy-2-methylpropyl)-1H-imidazole-4,5-dicarboxamide]	15000 nM	330 nM
O=C(NCC1CCCO1)c1nc[nH]c1C(=O)N[C@H]1CC[C@H](C(=O)Nc2cc(C(F)(F)F)ccc2Cl)CC1 (stereo partly drawn) [Example 146, N^5-(trans-4-{[2-chloro-5-(trifluoromethyl)phenyl]carbamoyl}cyclohexyl)-N^4-(tetrahydrofuran-2-ylmethyl)-1H-imidazole-4,5-dicarboxamide]	29000 nM	150 nM
CNC(=O)c1nc[nH]c1C(=O)N[C@H]1CC[C@H](C(=O)Nc2ncncc2Cl)CC1 [Example 147, N^5-{trans-4-[(5-chloropyrimidin-4-yl)carbamoyl]cyclohexyl}-N^4-methyl-1H-imidazole-4,5-dicarboxamide]	≥ 50000 nM	150 nM
O=C(N[C@H]1CC[C@]2(CCN(c3ccc(F)cc3Cl)C2=O)CC1)c1cnn2cccnc12 [Example 148, N-[(cis)-2-(2-chloro-4-fluorophenyl)-1-oxo-2-azaspiro[4.5]dec-8-yl]pyrazolo[1,5-a]pyrimidine-3-carboxamide]	≥ 50000 nM	3900 nM
O=C(N[C@H]1CC[C@H](C(=O)Nc2cnc(C(F)(F)F)cc2Cl)CC1)c1cnn2cccnc12 [Example 149, N-(trans-4-{[4-chloro-6-(trifluoromethyl)pyridin-3-yl]carbamoyl}cyclohexyl)pyrazolo[1,5-a]pyrimidine-3-carboxamide]	≥ 50000 nM	290 nM
Cc1cc(NC(=O)[C@H]2CC[C@H](NC(=O)c3cnn4cccnc34)CC2)c(Cl)cc1F [Example 150, N-{trans-4-[(2-chloro-4-fluoro-5-methylphenyl)carbamoyl]cyclohexyl}pyrazolo[1,5-a]pyrimidine-3-carboxamide]	≥ 50000 nM	170 nM
Cc1cc(F)cc(Cl)c1NC(=O)[C@H]1CC[C@H](NC(=O)c2cnn3cccnc23)CC1 [Example 151, N-{trans-4-[(2-chloro-4-fluoro-6-methylphenyl)carbamoyl]cyclohexyl}pyrazolo[1,5-a]pyrimidine-3-carboxamide]	≥ 50000 nM	470 nM
CCN(c1ccc(F)cc1Cl)C(=O)[C@H]1CC[C@H](NC(=O)c2cnn3cccnc23)CC1 [Example 154, N-{trans-4-[(2-chloro-4-fluorophenyl)(ethyl)carbamoyl]cyclohexyl}pyrazolo[1,5-a]pyrimidine-3-carboxamide]	≥ 50000 nM	87 nM
CN(c1ccc(F)cc1Cl)C(=O)[C@H]1CC[C@H](NC(=O)c2cnn3cccnc23)CC1 [Example 155, N-{trans-4-[(2-chloro-4-fluorophenyl)(methyl)carbamoyl]cyclohexyl}pyrazolo[1,5-a]pyrimidine-3-carboxamide]	≥ 50000 nM	140 nM
CN(c1ccccc1)C(=O)[C@H]1CC[C@H](NC(=O)c2cnn3cccnc23)CC1 [Example 156, N-{trans-4-[methyl(phenyl)carbamoyl]cyclohexyl}pyrazolo[1,5-a]pyrimidine-3-carboxamide]	≥ 50000 nM	390 nM
